Test results reported in patent US20120122727A1, “IN VITRO METHOD FOR PREDICTING WHETHER A COMPOUND IS GENOTOXIC IN VIVO” (priority 2009, published 2012).

Tested on: primary mouse hepatocytes
Experiment: Gene expression (Affymetrix Mouse Genome 430 2.0) in primary mouse hepatocytes, true vs false GTX, 24 h and 48 h
Details: log2, corrected for vehicle control

Nc1ccccc1C(=O)O [ANAC, o-Anthranilic acid]
Gene expression data AF000969 (Cadps2) (24 h average): −0.12 | Gene expression data AF022072 (Grb10) (24 h average): 0.4544 | Gene expression data AF065917 (Lif) (24 h average): −0.2023 | Gene expression data AF204959 (Cyp3a25 /// LOC622249) (24 h average): −0.28 | Gene expression data AF297615 (Ggta1) (24 h average): 0.03103 | Gene expression data AI594683 (Dmn) (24 h average): −0.2163 | Gene expression data AI596632 (Ptprg /// LOC632664) (24 h average): 0.1214 | Gene expression data AI987929 (Ndrg1) (24 h average): 0.6977 | Gene expression data AK004419 (Fbxl17) (24 h average): −0.01793 | Gene expression data AK005731 (1700007K13Rik) (24 h average): −0.1733 | Gene expression data AK007766 (1810044A24Rik) (24 h average): −0.05167 | Gene expression data AK007854 (1810053B23Rik) (24 h average): −0.4283 | Gene expression data AK009736 (Gpr137b /// LOC664862 /// LOC673335) (24 h average): −0.0957 | Gene expression data AK010447 (Smyd3) (24 h average): −0.1211 | Gene expression data AK014608 (4632434l11Rik) (24 h average): −0.1768 | Gene expression data AK019979 (2610528E23Rik) (24 h average): 0.1139 | Gene expression data AV095209 (Mthfd1l) (24 h average): 0.3162 | Gene expression data AV141095 (1110033M05Rik) (24 h average): −0.1293 | Gene expression data AV173571 (1700106N22Rik) (24 h average): −0.1574 | Gene expression data AV219418 (Ldhb) (24 h average): −0.2907 | Gene expression data AV223474 (Zdhhc14) (24 h average): −0.07347 | Gene expression data AV298304 (Homez) (24 h average): −0.0861 | Gene expression data AV327248 (Zfp365 /// LOC674611) (24 h average): 0.0212 | Gene expression data AV377066 (9130221J18Rik) (24 h average): −0.2482 | Gene expression data AW240761 (Tbc1d5) (24 h average): 0.001667 | Gene expression data AW543460 (Pard3) (24 h average): 0.06037 | Gene expression data AW543723 (24 h average): 0.2943 | Gene expression data AW986246 (Maoa) (24 h average): 0.01683 | Gene expression data BB027848 (4732466D17Rik) (24 h average): −0.03697 | Gene expression data BB043558 (9230114K14Rik) (24 h average): −0.1292 | Gene expression data BB275142 (AW456874) (24 h average): 0.02823 | Gene expression data BB308836 (Ppm1l) (24 h average): −0.0317 | Gene expression data BB318221 (Zdhhc14) (24 h average): 0.0002333 | Gene expression data BB463610 (4632434l11Rik) (24 h average): −0.3672 | Gene expression data BB526605 (Mipol1) (24 h average): 0.3407 | Gene expression data BB770528 (Rai2) (24 h average): −0.08327 | Gene expression data BB821363 (Scfd2) (24 h average): −0.084 | Gene expression data BC004827 (Psat1) (24 h average): 0.3937 | Gene expression data BC008626 (Icam1) (24 h average): −0.2705 | Gene expression data BC010462 (BC010462) (24 h average): −0.4089 | Gene expression data BC012247 (Dcxr) (24 h average): −0.0311 | Gene expression data BC012260 (Psmf1) (24 h average): −0.1838 | Gene expression data BC015270 (Hist2h3c2) (24 h average): 0.1186 | Gene expression data BC016073 (Cdkal1) (24 h average): 0.0051 | Gene expression data BC016265 (Ube2e2) (24 h average): 0.01507 | Gene expression data BC019882 (Acaa1b) (24 h average): 1.0984 | Gene expression data BC025501 (Aaas) (24 h average): −0.2261 | Gene expression data BC025837 (Sbk1) (24 h average): −0.3033 | Gene expression data BC025915 (Cova1) (24 h average): −0.05383 | Gene expression data BC026422 (Tgm1) (24 h average): 0.0232 | Gene expression data BF719766 (Thyn1) (24 h average): −0.1153 | Gene expression data BG065754 (Ccng1) (24 h average): −0.08917 | Gene expression data BG066903 (Kif16b) (24 h average): 0.0241 | Gene expression data BG069873 (Gnb1l) (24 h average): −0.2107 | Gene expression data BG070887 (Gtdc1) (24 h average): −0.05163 | Gene expression data BG076151 (Ppm1d) (24 h average): −0.08637 | Gene expression data BG261907 (Large) (24 h average): 0.09293 | Gene expression data BI651416 (Cdc42bpg) (24 h average): 0.01387 | Gene expression data BI660702 (Ell3) (24 h average): −0.1539 | Gene expression data BM198879 (Ercc5) (24 h average): −0.2194 | Gene expression data BM230508 (A030007D23Rik) (24 h average): −0.1178 | Gene expression data NM_007987 (Fas) (24 h average): −0.1337 | Gene expression data NM_008522 (Ltf) (24 h average): 0.0771 | Gene expression data NM_008576 (Abcc1) (24 h average): 0.3586 | Gene expression data NM_011176 (St14) (24 h average): −0.1445 | Gene expression data NM_011316 (Saa4) (24 h average): −0.1988 | Gene expression data NM_012006 (Acot1) (24 h average): 1.862 | Gene expression data NM_013866 (Zfp385) (24 h average): −0.1953 | Gene expression data NM_018770 (Igsf4a) (24 h average): −0.08853 | Gene expression data NM_021451 (Pmaip1) (24 h average): 0.01303 | Gene expression data NM_025770 (Atg10) (24 h average): −0.01263 | Gene expression data NM_028803 (Gbe1) (24 h average): −0.0826 | Gene expression data NM_030697 (Ankrd47) (24 h average): −0.1623 | Gene expression data NM_053168 (Trim11) (24 h average): −0.201 | Gene expression data NM_134188 (Acot2) (24 h average): 0.8696 | Gene expression data Y15910 (Diap2) (24 h average): 0.06533 | Gene expression AA561726 average (48 h): 0.3194 | Gene expression AF000969 average (48 h): −0.5599 | Gene expression AF022072 average (48 h): 0.5563 | Gene expression AF033112 average (48 h): 0.1422 | Gene expression AF055573 average (48 h): −0.1687 | Gene expression AF069954 average (48 h): −0.3847 | Gene expression AF297615 average (48 h): 0.111 | Gene expression AF335325 average (48 h): −0.0865 | Gene expression AI594683 average (48 h): −0.5224 | Gene expression AI747296 average (48 h): −0.0394 | Gene expression AK005731 average (48 h): −0.6498 | Gene expression AK007854 average (48 h): −0.2242 | Gene expression AK010447 average (48 h): −0.1083 | Gene expression AK010738 average (48 h): −0.06687 | Gene expression AK014608 average (48 h): −0.455 | Gene expression AK017734 average (48 h): −0.5275 | Gene expression AK018383 average (48 h): −0.0203 | Gene expression AK019979 average (48 h): 0.04547 | Gene expression AV095209 average (48 h): 0.2956 | Gene expression AV141095 average (48 h): −0.0311 | Gene expression AV173869 average (48 h): −0.005067 | Gene expression AV216768 average (48 h): 0.4153 | Gene expression AV219418 average (48 h): 0.1539 | Gene expression AV221299 average (48 h): 0.1649 | Gene expression AV246296 average (48 h): −0.1054 | Gene expression AV251625 average (48 h): 0.0423 | Gene expression AV254764 average (48 h): −0.265 | Gene expression AV327248 average (48 h): 0.0856 | Gene expression BB009155 average (48 h): −0.4697 | Gene expression BB027848 average (48 h): −0.2609 | Gene expression BB043558 average (48 h): −0.188 | Gene expression BB046347 average (48 h): −0.1072 | Gene expression BB140436 average (48 h): −0.07237 | Gene expression BB204486 average (48 h): 0.3188 | Gene expression BB223872 average (48 h): −0.4287 | Gene expression BB246912 average (48 h): −0.1992 | Gene expression BB275142 average (48 h): −0.2874 | Gene expression BB458460 average (48 h): 0.007967 | Gene expression BB463610 average (48 h): −0.2186 | Gene expression BB730977 average (48 h): 0.7532 | Gene expression BB743970 average (48 h): 0.1551 | Gene expression BB770528 average (48 h): −0.001733 | Gene expression BB781615 average (48 h): −0.2937 | Gene expression BC003284 average (48 h): −0.2108 | Gene expression BC004827 average (48 h): 0.3756 | Gene expression BC005552 average (48 h): 0.3056 | Gene expression BC006713 average (48 h): −0.1305 | Gene expression BC010318 average (48 h): 0.1353 | Gene expression BC012247 average (48 h): −0.5319 | Gene expression BC012955 average (48 h): −0.2554 | Gene expression BC013893 average (48 h): −0.5709 | Gene expression BC017615 average (48 h): 0.06827 | Gene expression BC019379 average (48 h): 0.0072 | Gene expression BC019882 average (48 h): 0.1948 | Gene expression BC021352 average (48 h): 0.06563 | Gene expression BC022148 average (48 h): −0.1976 | Gene expression BC025169 average (48 h): −0.0788 | Gene expression BC026131 average (48 h): 0.0392 | Gene expression BC027026 average (48 h): −0.007933 | Gene expression BC027121 average (48 h): −0.1424 | Gene expression BC027185 average (48 h): −0.2381 | Gene expression BE956581 average (48 h): 0.04267 | Gene expression BF719766 average (48 h): 0.07637 | Gene expression BG065754 average (48 h): 0.0641 | Gene expression BG066491 average (48 h): −0.061 | Gene expression BG076151 average (48 h): −0.241 | Gene expression BG076333 average (48 h): 0.2383 | Gene expression BG797099 average (48 h): −0.02097 | Gene expression BG967046 average (48 h): −0.2562 | Gene expression BI651416 average (48 h): −0.1051 | Gene expression BI966443 average (48 h): 0.07723 | Gene expression BM198879 average (48 h): −0.1608 | Gene expression BM200015 average (48 h): 0.009533 | Gene expression BM230508 average (48 h): −0.471 | Gene expression BM936480 average (48 h): −0.04323 | Gene expression BQ174991 average (48 h): 0.4039 | Gene expression L21027 average (48 h): 0.3857 | Gene expression NM_007556 average (48 h): 0.5247 | Gene expression NM_007980 average (48 h): 0.1776 | Gene expression NM_007987 average (48 h): −0.005833 | Gene expression NM_008522 average (48 h): −0.06957 | Gene expression NM_008935 average (48 h): 0.3779 | Gene expression NM_009897 average (48 h): 0.09963 | Gene expression NM_011075 average (48 h): 0.3891 | Gene expression NM_011176 average (48 h): −0.4607 | Gene expression NM_011316 average (48 h): −0.4717 | Gene expression NM_012006 average (48 h): 1.5971 | Gene expression NM_013642 average (48 h): 0.3286 | Gene expression NM_013738 average (48 h): −0.3378 | Gene expression NM_013929 average (48 h): −0.006633 | Gene expression NM_018881 average (48 h): 0.08383 | Gene expression NM_019738 average (48 h): −0.6326 | Gene expression NM_030697 average (48 h): −0.6238 | Gene expression NM_053122 average (48 h): −0.04513 | Gene expression NM_134147 average (48 h): −0.2207 | Gene expression NM_134188 average (48 h): 0.2382 | Gene expression X62701 average (48 h): 0.7542
